Consider four molecules from US20250188092A1, “RIFAMYCIN ANALOGS” (THE REGENTS OF THE UNIVERSITY OF MICHIGAN, priority 2021, published 2025).

Read-outs that look alike come from different tables or passages of the source. Where only a bound is given, the exact number is not on record here.

For this test, the system named is non-replicating cultures of M. tuberculosis H37Rv transformed with lux ABCDE. In words: microbe, parasite or virus in culture. The conditions noted are these: for MIC90: ≥90% reduction in luminescence, read-out: MIC90 LORA; for MIC90 LORA/MABA: ratio of LORA MIC90 to MABA MIC90. Type of test: cell-based, Mycobacterium tuberculosis. On the technique in general: Alamar Blue is a resazurin reagent that responds to reducing activity.

Where [1] appears, read: Mycobacterium tuberculosis, H37RV.

Consider `CO[C@H]1/C=C/O[C@@]2(C)Oc3c(C)c(O)c4c(=O)c(c5oc6cc(N7CCN(CC(C)C)CC7)cc(OCc7ccc(CN8CCN(C(=O)CN9CCOCC9)CC8)cc7)c6nc-5c4c3C2=O)NC(=O)/C(C)=C\C=C\[C@H](C)[C@H](O)[C@@H](C)[C@@H](O)[C@@H](C)[C@H](OC(C)=O)[C@@H]1C` [Compound 17d, (7S,9E,11S,12R,13S,14R,15R,16R,17S,18S,19E,21Z)-2,15,17-Trihydroxy-11-methoxy-3,7,12,14,16,18,22-heptamethyl-30-[4-(2-methylpropyl)piperazin-1-yl]-32-{[4-({4-[2-(morpholin-4-yl)acetyl]piperazin-1-yl}methyl)phenyl]methoxy}-6,23,37-trioxo-8,27,38-trioxa-24,34-diazahexacyclo[23.11.1.1^4,7.0^5,36.0^26,35.0^28,33]octatriaconta-1(36)2,4,9,19,21,25,28,30,32,34-undecaen-13-yl acetate], for which the MIC90 under setting [1] was under 0.016 µM.

On to `CO[C@H]1/C=C/O[C@@]2(C)Oc3c(C)c(O)c4c(=O)c(c5oc6cccc(OCc7cccc(CN8CCN(C(C)=O)CC8)c7)c6nc-5c4c3C2=O)NC(=O)/C(C)=C\C=C\[C@H](C)[C@H](O)[C@@H](C)[C@@H](O)[C@@H](C)[C@H](OC(C)=O)[C@@H]1C` [Compound 11c, (7S,9E,11S,12R,13S,14R,15R,16R,17S,18S,19E,21Z)-32-({3-[(4-Acetylpiperazin-1-yl)methyl]phenyl}methoxy)-2,15,17-trihydroxy-11-methoxy-3,7,12,14,16,18,22-heptamethyl-6,23,37-trioxo-8,27,38-trioxa-24,34-diazahexacyclo-[23.11.1.1^4,7.0^5,36.0^26,35.0^28,33]octatriaconta-1(36)2,4,9,19,21,25,28,30,32,34-undecaen-13-yl acetate], for which the “MIC90 LORA Rel to RMP” value was 0.53 and the “MIC90 LORA/MABA” value came out at 2.1. Also, the MIC90 under setting [1] came out at 0.123 µM.

Consider `CO[C@H]1/C=C/O[C@@]2(C)Oc3c(C)c(O)c4c(=O)c(c5oc6cc(C)cc(N7CCN(C(=O)c8cccc(-c9ccccn9)c8)CC7)c6nc-5c4c3C2=O)NC(=O)/C(C)=C\C=C\[C@H](C)[C@H](O)[C@@H](C)[C@@H](O)[C@@H](C)[C@H](OC(C)=O)[C@@H]1C` [Compound 30g, (7S,9E,11S,12R,13S,14R,15R,16R,17S,18S,19E,21Z)-2,15,17-Trihydroxy-11-methoxy-3,7,12,14,16,18,22,30-octamethyl-6,23,37-trioxo-32-{4-[3-(pyridin-2-yl)benzoyl]piperazin-1-yl}-8,27,38-trioxa-24,34-diazahexacyclo[23.11.1.1^4,7.0^5,36.0^26,35.0^28,33]octatriaconta-1(36)2,4,9,19,21,25,28,30,32,34-undecaen-13-yl acetate], for which the “MIC90 LORA Rel to RMP” value is on record as 0.16 and the “MIC90 LORA/MABA” value is reported as 1.2. Besides, the MIC90 under setting [1] turned out to be 0.032 µM.

Consider `CO[C@H]1/C=C/O[C@@]2(C)Oc3c(C)c(O)c4c(=O)c(c5oc6cc(C=O)cc(N7CCN(C)CC7)c6nc-5c4c3C2=O)NC(=O)/C(C)=C\C=C\[C@H](C)[C@H](O)[C@@H](C)[C@@H](O)[C@@H](C)[C@H](OC(C)=O)[C@@H]1C` [Compound 30b, (7S,9E,11S,12R,13S,14R,15R,16R,17S,18S,19E,21Z)-30-Formyl-2,15,17-trihydroxy-11-methoxy-3,7,12,14,16,18,22-heptamethyl-32-(4-methylpiperazin-1-yl)-6,23,37-trioxo-8,27,38-trioxa-24,34-diazahexacyclo[23.11.1.1^4,7.0^5,36.0^26,35.0^28,33]octatriaconta-1(36)2,4,9,19,21,25,28,30,32,34-undecaen-13-yl acetate], for which the “MIC90 LORA Rel to RMP” value stood at 0.44, the MIC90 turned out to be 0.114 µM and the “MIC90 LORA/MABA” value worked out at 3.1.
